Values joined by “and” are separate entries in the source; they are usually repeats but may differ in a detail not shown here. Identical values can stand only once. Like-named read-outs stand apart in the source and are kept apart here.
Columns and labels:
[1] = system: cerebral blood flow in mice; assay: laser speckle test blood flow model, improvement of cerebral blood flow in mice; format: in vivo; details: injected intraperitoneally, within 60 minutes after administration vs before; for change in vivo at 20 mg/kg: dose of 20 mg/kg
Text: We used a laser speckle test blood flow model to test the activity of compounds in improving cerebral blood flow in mice. The principle is to measure the intensity changes of flowing blood through laser speckle technology, reflecting real-time cerebral blood flow; By comparing the changes in blood flow before and after administration in mice, the effect of compounds on improving blood flow can be detected.
The experimental mice were anesthetized for 30 seconds and fixed on a rack. After waiting for 2 minutes for the baseline light intensity data to stabilize, the brain blood flow light intensity data of the mice were recorded for 10 minutes without administration. Subsequently, the test compound was injected intraperitoneally and the cerebral blood flow and light intensity data of mice were recorded within 60 minutes after administration. Comparing the changes in light intensity before and after administration can reveal the degree of changes in cerebral blood flow in mice.
Through the laser speckle model mentioned above, we conducted preliminary tests on the activity of the compound in improving cerebral blood flow in mice. In this experiment, ferulic acid (FA) was used as a positive control. Multiple compounds have shown significant improvement effects on cerebral blood flow in this model. At a dose of 5 mg/kg, compound 9 can increase cerebral blood flow in mice by about 10%, and compound 16 can increase it by about 20%. At a dose of 20 mg/kg, compounds 30 and 59 increased mouse cerebral blood flow by about 10%, compounds 5, 6, 26, 28, 29, 35, 43, and 58 all increased mouse cerebral blood flow by about 20%, compounds 16, 57, and 86 increased mouse cerebral blood flow by about 30%, compounds 27, 84, and 104 increased it by about 40%, and compound 83 increased mouse cerebral blood flow by 50% to 60%. Overall, the patented compound has good development prospects.

[2] = pharmacokinetic parameters in mice (plasma, LC-MS/MS); format: in vivo, Male ICR (CD-1) mice; details: male, ICR (CD-1), mouse; for MRT inf: read-out: MRT0-∞; for bioavailability: read-out: F (oral bioavailability)
Description: Male ICR (CD-1) mice were divided into two groups, with three mice in each group. […] intravenously injected with 5 mg/kg of the test substance, blood was collected before administration, and 0.25 h, 0.5 h, 1 h, 2 h, 4 h, 8 h, and 24 hours after administration, respectively, and centrifuged immediately to obtain plasma, and the drug concentration in the plasma was determined using liquid chromatography tandem mass spectrometry.

[3] = drug concentration in brain tissue, plasma and CSF after oral administration in mice; format: in vivo
Text: Compound 27 has good brain tissue drug distribution after oral administration in mice, with a B/P of approximately 0.7.

[4] = Mus musculus, ip, 1 h, read-out: increase of cerebral blood flow in mice
[5] = PO 20 mg/kg, 15 min, individual animals 13-15
[6] = PO 20 mg/kg, 30 min, individual animals 16-18

## O=C(/C=C/c1ccccc1C(F)(F)F)N1C(=O)OC[C@@H]1c1ccccc1 [Example 27, (S, E)-3-(3-(2-trifluoromethylphenyl)acryloyl)-4-phenyloxazolidin-2-one]
[1]; [4]
  change in vivo at 20 mg/kg: ~40%
[2]; iv-5 mg/kg
  AUC(0-inf): 805 ng·h/mL
  AUC(0-t): 790 ng·h/mL
  clearance: 104 mL/min/kg
  half-life: 2.08 h
  MRT inf: 1.04 h
[2]; po-20 mg/kg
  AUC(0-inf): 650 ng·h/mL
  AUC(0-t): 465 ng·h/mL
  Cmax: 104 ng/mL
  Tmax: 1 h
  half-life: 4.01 h
  MRT inf: 6.12 h
[2]; po-20 mg/kg vs iv-5 mg/kg
  bioavailability: 14.7%
[3]; ICR (CD-1), mouse, brain, po, 20 mg/kg, PO 20 mg/kg, 15 min, mean, read-out: Brain
  concentration at 15 min: 50.9 ng/g
[3]; ICR (CD-1), mouse, brain, po, 20 mg/kg, PO 20 mg/kg, 30 min, mean, read-out: Brain
  concentration at 30 min: 43.7 ng/g
[3]; ICR (CD-1), mouse, brain/heart plasma, po, 20 mg/kg, PO 20 mg/kg, 15 min, individual animals 13-15, read-out: Brain/H. Plasma
  Kp at 15 min: 0.7
[3]; ICR (CD-1), mouse, brain/heart plasma, po, 20 mg/kg, PO 20 mg/kg, 15 min, mean, read-out: Brain/H. Plasma
  Kp at 15 min: 0.7
[3]; ICR (CD-1), mouse, brain/heart plasma, po, 20 mg/kg, PO 20 mg/kg, 30 min, mean, read-out: Brain/H. Plasma
  Kp at 30 min: 0.7
[3]; ICR (CD-1), mouse, brain/plasma, po, 20 mg/kg, after oral administration in mice, read-out: B/P (brain tissue drug distribution)
  Kp at 15 min: ~0.7
[3]; ICR (CD-1), mouse, heart plasma, po, 20 mg/kg, PO 20 mg/kg, 15 min, mean, read-out: Heart Plasma
  concentration at 15 min: 70.4 ng/mL
[3]; ICR (CD-1), mouse, heart plasma, po, 20 mg/kg, PO 20 mg/kg, 30 min, mean, read-out: Heart Plasma
  concentration at 30 min: 61.9 ng/mL
[3]; ICR (CD-1), mouse, po, 20 mg/kg, PO 20 mg/kg, 15 min, mean, read-out: CSF
  concentration at 15 min: 3.8 ng/mL
[3]; ICR (CD-1), mouse, po, 20 mg/kg, PO 20 mg/kg, 30 min, mean, read-out: CSF
  concentration at 30 min: 3.2 ng/mL
[3]; ICR (CD-1), mouse, portal vein plasma, po, 20 mg/kg, PO 20 mg/kg, 15 min, individual animals 13-15, read-out: Portal Vein Plasma
  concentration at 15 min: 320 ng/mL
[3]; ICR (CD-1), mouse, portal vein plasma, po, 20 mg/kg, PO 20 mg/kg, 15 min, mean, read-out: Portal Vein Plasma
  concentration at 15 min: 371 ng/mL
[3]; ICR (CD-1), mouse, portal vein plasma, po, 20 mg/kg, PO 20 mg/kg, 30 min, mean, read-out: Portal Vein Plasma
  concentration at 30 min: 373 ng/mL
[3]; [5]
  Brain: 29.4 ng/g and 75.4 ng/g and 47.9 ng/g
  Brain/H. Plasma: 0.65 and 0.91
  CSF: 1.63 ng/mL and 8.37 ng/mL and 1.40 ng/mL
  Heart Plasma: 41.9 ng/mL and 117 ng/mL and 52.7 ng/mL
  Portal Vein Plasma: 375 ng/mL and 418 ng/mL
[3]; [6]
  Brain: 19.4 ng/g and 38.8 ng/g and 44.3 ng/g
  Brain/H. Plasma: 0.56 and 1.37 and 0.49
  CSF: 0.670 ng/mL and 0.770 ng/mL and 5.94 ng/mL
  Heart Plasma: 34.2 ng/mL and 28.2 ng/mL and 89.5 ng/mL
  Portal Vein Plasma: 252 ng/mL and 171 ng/mL and 704 ng/mL

## O=C(/C=C/c1ccccc1OC(F)(F)F)N1C(=O)OC[C@@H]1c1ccccc1 [Example 30, (S, E)-4-phenyl-3-(3-(2-(trifluoromethoxy)phenyl)acryloyl) oxazolidin-2-one]
[1]; [4]
  change in vivo at 20 mg/kg: ~10%

## O=C(/C=C/c1ccccc1C(F)(F)F)N1C(=O)OC[C@H]1c1ccccc1 [Example 28, (R, E)-3-(3-(2-trifluoromethylphenyl)acryloyl)-4-phenyloxazolidin-2-one]
[1]; [4]
  change in vivo at 20 mg/kg: ~20%

## COc1ccc(/C=C/C(=O)N2CCOC2=O)cc1 [Example 6, (E)-3-(3-(4-methoxyphenyl)acryloyl)oxazolidin-2-one]
[1]; [4]
  change in vivo at 20 mg/kg: ~20%

## O=C(/C=C/c1ccccc1C(F)(F)F)N1C(=O)OCC1Cc1ccccc1 (stereo not drawn) [Example 57, (E)-4-benzyl-3-(3-(2-trifluoromethylphenyl)acryloyl)oxazolidin-2-one]
[1]; [4]
  change in vivo at 20 mg/kg: ~30%

## [2H]C1([2H])OC(=O)N(C(=O)/C=C/c2cccc(-c3ccccc3)c2)[C@H]1c1ccccc1 [Example 86, (S, E)-3-(3-([1,1′-biphenyl]-3-yl)acryloyl)-4-phenyloxazolidin-2-one-5,5-d2]
[1]; [4]
  change in vivo at 20 mg/kg: ~30%

## O=C(/C=C/c1cccc(-c2ccccc2)c1)N1C(=O)OC[C@@H]1c1ccccc1 [Example 35, (S, E)-3-(3-([1,1′-biphenyl]-3-yl)acryloyl)-4-phenyloxazolidin-2-one]
[1]; [4]
  change in vivo at 20 mg/kg: ~20%

## O=C(/C=C/c1cccc(Oc2ccccc2)c1)N1CCOC1=O [Example 16, (E)-3-(3-(3-phenoxyphenyl)acryloyl)oxazolidin-2-one]
[1]; Mus musculus, ip, 1 h, dose of 5 mg/kg, read-out: increase of cerebral blood flow in mice
  change in vivo at 5 mg/kg: ~20%
[1]; [4]
  change in vivo at 20 mg/kg: ~30%

## O=C(/C=C/c1cccc(OC(F)(F)F)c1)N1C(=O)OC[C@@H]1c1ccccc1 [Example 29, (S, E)-4-phenyl-3-(3-(3-(trifluoromethoxy)phenyl)acryloyl) oxazolidin-2-one]
[1]; [4]
  change in vivo at 20 mg/kg: ~20%

## [2H]C1([2H])OC(=O)N(C(=O)/C=C/c2ccccc2OC(F)(F)F)[C@H]1c1ccccc1 [Example 84, (S, E)-4-phenyl-3-(3-(2-trifluoromethoxyphenyl)acryloyl) oxazolidin-2-one-5,5-d2]
[1]; [4]
  change in vivo at 20 mg/kg: ~40%

## O=C(/C=C/c1ccccc1C(F)(F)F)N1C(=O)OC[C@H]1Cc1ccccc1 [Example 59, (R, E)-4-benzyl-3-(3-(2-trifluoromethylphenyl)acryloyl)oxazolidin-2-one]
[1]; [4]
  change in vivo at 20 mg/kg: ~10%

## [2H]C1([2H])OC(=O)N(C(=O)/C=C/c2ccccc2C(F)(F)F)[C@H]1c1ccccc1 [Example 83, (S, E)-4-phenyl-3-(3-(2-trifluoromethylphenyl)acryloyl)oxazolidin-2-one-5,5-d2]
[1]; [4]
  change in vivo at 20 mg/kg: 50 to 60%
[2]; iv-5 mg/kg
  AUC(0-inf): 2200 ng·h/mL
  AUC(0-t): 2170 ng·h/mL
  clearance: 37.8 mL/min/kg
  half-life: 1.56 h
  MRT inf: 1.21 h
[2]; po-10 mg/kg
  AUC(0-inf): 767 ng·h/mL
  AUC(0-t): 757 ng·h/mL
  Cmax: 116 ng/mL
  Tmax: 1 h
  half-life: 4.08 h
  MRT inf: 5.61 h
[2]; po-10 mg/kg vs iv-5 mg/kg
  bioavailability: 17.4%

## [2H]C1([2H])OC(=O)N(C(=O)/C=C/c2ccccc2C(F)(F)F)C1Cc1ccccc1 (stereo not drawn) [Example 104, (E)-4-benzyl-3-(3-(2-trifluoromethylphenyl)acryloyl)oxazolidin-2-one-5,5-d2]
[1]; [4]
  change in vivo at 20 mg/kg: ~40%

## O=C(/C=C/c1ccccc1C(F)(F)F)N1C(=O)OC[C@@H]1Cc1ccccc1 [Example 58, (S, E)-4-benzyl-3-(3-(2-trifluoromethylphenyl)acryloyl)oxazolidin-2-one]
[1]; [4]
  change in vivo at 20 mg/kg: ~20%

## O=C(/C=C/c1ccc(F)cc1C(F)(F)F)N1C(=O)OC[C@@H]1c1ccccc1 [Example 43, (S, E)-3-(3-(4-fluoro-2-(trifluoromethyl)phenyl)acryloyl)-4-phenyloxazolidin-2-one]
[1]; [4]
  change in vivo at 20 mg/kg: ~20%

## O=C(/C=C/c1ccccc1C(F)(F)F)N1C(=O)OCC1c1ccccc1 (stereo not drawn) [Example 26, (E)-3-(3-(2-trifluoromethylphenyl)acryloyl)-4-phenyloxazolidin-2-one]
[1]; [4]
  change in vivo at 20 mg/kg: ~20%

## COc1cccc(/C=C/C(=O)N2CCOC2=O)c1 [Example 5, (E)-3-(3-(3-methoxyphenyl)acryloyl)oxazolidin-2-one]
[1]; [4]
  change in vivo at 20 mg/kg: ~20%

## O=C(/C=C/c1ccc(C(F)(F)F)cc1)N1CCOC1=O [Example 9]
[1]; dose of 5 mg/kg
  increase of cerebral blood flow in mice: about 10%
